Measurements published in ChEMBL document CHEMBL4265887 (Bioorg Med Chem Lett, 2018).

What was measured:
Aurora kinase A = molecular target: T1, Aurora kinase A (Homo sapiens, UniProt O14965); test: Inhibition of recombinant Aurora A (unknown origin) using TAMRA-PKAtide as substrate after 30 mins by fluorescence polarization assay
T1 sequence (O14965 whole entry): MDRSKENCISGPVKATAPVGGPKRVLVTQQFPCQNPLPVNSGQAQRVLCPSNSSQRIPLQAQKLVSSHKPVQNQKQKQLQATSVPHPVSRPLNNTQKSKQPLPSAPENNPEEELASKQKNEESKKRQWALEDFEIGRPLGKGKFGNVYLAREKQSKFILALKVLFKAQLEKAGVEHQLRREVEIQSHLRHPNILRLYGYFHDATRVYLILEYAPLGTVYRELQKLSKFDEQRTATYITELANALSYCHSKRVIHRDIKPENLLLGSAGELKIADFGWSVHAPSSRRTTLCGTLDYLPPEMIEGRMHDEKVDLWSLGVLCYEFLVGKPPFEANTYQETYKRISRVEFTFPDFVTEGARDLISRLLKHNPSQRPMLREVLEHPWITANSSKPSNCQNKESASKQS

Aurora kinase B = Aurora kinase B (Homo sapiens, UniProt Q96GD4); test: Inhibition of recombinant Aurora B (unknown origin) using TAMRA-PKAtide as substrate after 1 hr by fluorescence polarization assay
HCT-116 [1] = test: Synergistic cytotoxicity against human HCT116 cells assessed as reduction in cell viability by measuring combination index at 1:1 compound to GSK2126458 ratio after 48 hrs by MTT assay; assay type: functional
HCT-116 [2] = test: Synergistic cytotoxicity against human HCT116 cells assessed as reduction in cell viability by measuring combination index at 1:1 compound to lonafarnib ratio after 48 hrs by MTT assay; assay type: functional
HT-29 [3] = test: Synergistic cytotoxicity against human HT-29 cells assessed as reduction in cell viability by measuring combination index at 1:1 compound to trichostatin A ratio after 48 hrs by MTT assay; assay type: functional
HT-29 [4] = test: Synergistic cytotoxicity against human HT-29 cells assessed as reduction in cell viability by measuring combination index at 1:1 compound to lonafarnib ratio after 48 hrs by MTT assay; assay type: functional
[5] = molecular target: Tyrosine-protein kinase ABL1 (Homo sapiens) (UniProt P00519); test: Inhibition of ABL (unknown origin) at 10 uM
[6] = molecular target: Proto-oncogene tyrosine-protein kinase receptor Ret (Homo sapiens) (UniProt P07949); test: Inhibition of RET (unknown origin) at 10 uM
[7] = molecular target: Fibroblast growth factor receptor 3 (Homo sapiens) (UniProt P22607); test: Inhibition of FGFR3 (unknown origin) at 10 uM
[8] = molecular target: Serine/threonine-protein kinase PLK3 (Homo sapiens) (UniProt Q9H4B4); test: Inhibition of PLK3 (unknown origin) at 10 uM
[9] = molecular target: Receptor-type tyrosine-protein kinase FLT3 (Homo sapiens) (UniProt P36888); test: Inhibition of FLT3 (unknown origin) at 10 uM
[10] = molecular target: Angiopoietin-1 receptor (Homo sapiens) (UniProt Q02763); test: Inhibition of TIE2 (unknown origin) at 10 uM
[11] = molecular target: Serine/threonine-protein kinase pim-1 (Homo sapiens) (UniProt P11309); test: Inhibition of PIM1 (unknown origin) at 10 uM
[12] = molecular target: Protein kinase C alpha type (Homo sapiens) (UniProt P17252); test: Inhibition of PKCalpha (unknown origin) at 10 uM
[13] = molecular target: Tyrosine-protein kinase CSK (Homo sapiens) (UniProt P41240); test: Inhibition of CSK (unknown origin) at 10 uM
[14] = molecular target: Mitogen-activated protein kinase 3 (Homo sapiens) (UniProt P27361); test: Inhibition of ERK1 (unknown origin) at 10 uM
Sequence of Mitogen-activated protein kinase 3 (Homo sapiens) (P27361 whole entry): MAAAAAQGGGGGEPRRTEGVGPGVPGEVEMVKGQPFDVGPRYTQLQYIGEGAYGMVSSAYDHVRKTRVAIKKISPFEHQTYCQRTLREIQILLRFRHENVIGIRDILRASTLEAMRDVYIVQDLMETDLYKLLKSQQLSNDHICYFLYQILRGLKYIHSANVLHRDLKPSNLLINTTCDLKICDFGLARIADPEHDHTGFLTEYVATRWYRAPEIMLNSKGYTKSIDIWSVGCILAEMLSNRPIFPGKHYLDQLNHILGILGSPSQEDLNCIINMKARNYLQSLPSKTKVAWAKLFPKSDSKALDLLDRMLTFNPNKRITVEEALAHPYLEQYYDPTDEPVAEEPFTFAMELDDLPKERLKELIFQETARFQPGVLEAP

Sequence of Tyrosine-protein kinase CSK (Homo sapiens) (P41240 2-450 limits assumed): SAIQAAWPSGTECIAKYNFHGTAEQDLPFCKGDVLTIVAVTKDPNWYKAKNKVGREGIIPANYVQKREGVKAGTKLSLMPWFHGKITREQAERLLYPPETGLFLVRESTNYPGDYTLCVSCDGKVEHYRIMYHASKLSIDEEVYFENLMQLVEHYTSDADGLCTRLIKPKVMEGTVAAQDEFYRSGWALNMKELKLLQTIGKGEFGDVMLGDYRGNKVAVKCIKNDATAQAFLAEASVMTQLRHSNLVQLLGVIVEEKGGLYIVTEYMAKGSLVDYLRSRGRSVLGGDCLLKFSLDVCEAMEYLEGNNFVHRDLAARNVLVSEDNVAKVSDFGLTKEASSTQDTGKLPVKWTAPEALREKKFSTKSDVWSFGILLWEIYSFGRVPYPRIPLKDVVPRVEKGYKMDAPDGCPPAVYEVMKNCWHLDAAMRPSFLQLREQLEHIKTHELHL
Sequence of Serine/threonine-protein kinase pim-1 (Homo sapiens) (P11309 whole entry, looked up): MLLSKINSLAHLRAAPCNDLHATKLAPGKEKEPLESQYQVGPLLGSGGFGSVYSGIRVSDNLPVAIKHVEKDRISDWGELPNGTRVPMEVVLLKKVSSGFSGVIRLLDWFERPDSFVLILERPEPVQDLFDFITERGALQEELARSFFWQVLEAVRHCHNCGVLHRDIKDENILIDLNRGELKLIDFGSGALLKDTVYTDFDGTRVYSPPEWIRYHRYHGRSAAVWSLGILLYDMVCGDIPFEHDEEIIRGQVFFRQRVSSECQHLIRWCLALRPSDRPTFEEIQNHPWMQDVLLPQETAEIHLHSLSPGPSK
Sequence of Receptor-type tyrosine-protein kinase FLT3 (Homo sapiens) (P36888 whole entry): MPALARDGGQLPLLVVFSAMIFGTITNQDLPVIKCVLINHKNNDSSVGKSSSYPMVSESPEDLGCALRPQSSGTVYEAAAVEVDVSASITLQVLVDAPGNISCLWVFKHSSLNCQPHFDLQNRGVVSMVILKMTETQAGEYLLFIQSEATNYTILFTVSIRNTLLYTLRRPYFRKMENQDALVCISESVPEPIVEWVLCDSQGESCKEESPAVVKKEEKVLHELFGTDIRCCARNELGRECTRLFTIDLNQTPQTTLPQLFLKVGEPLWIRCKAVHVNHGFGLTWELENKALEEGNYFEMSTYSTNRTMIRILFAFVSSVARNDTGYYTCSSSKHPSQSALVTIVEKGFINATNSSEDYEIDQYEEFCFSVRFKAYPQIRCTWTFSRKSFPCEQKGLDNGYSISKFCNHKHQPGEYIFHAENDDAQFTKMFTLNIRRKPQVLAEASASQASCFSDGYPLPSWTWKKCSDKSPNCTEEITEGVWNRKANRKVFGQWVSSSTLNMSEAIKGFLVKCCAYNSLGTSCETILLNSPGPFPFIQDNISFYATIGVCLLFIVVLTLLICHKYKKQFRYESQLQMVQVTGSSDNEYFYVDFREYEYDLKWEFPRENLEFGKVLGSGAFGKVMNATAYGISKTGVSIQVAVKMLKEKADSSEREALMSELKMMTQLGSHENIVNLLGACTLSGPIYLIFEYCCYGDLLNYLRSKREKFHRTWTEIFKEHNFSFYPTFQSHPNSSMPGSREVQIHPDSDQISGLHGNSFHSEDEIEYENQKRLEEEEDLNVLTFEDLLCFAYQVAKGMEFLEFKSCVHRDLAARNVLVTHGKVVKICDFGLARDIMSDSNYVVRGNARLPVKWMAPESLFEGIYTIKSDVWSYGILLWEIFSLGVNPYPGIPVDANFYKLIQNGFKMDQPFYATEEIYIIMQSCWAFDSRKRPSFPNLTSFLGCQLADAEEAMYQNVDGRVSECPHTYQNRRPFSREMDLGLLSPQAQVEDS
Sequence of Proto-oncogene tyrosine-protein kinase receptor Ret (Homo sapiens) (P07949 whole entry): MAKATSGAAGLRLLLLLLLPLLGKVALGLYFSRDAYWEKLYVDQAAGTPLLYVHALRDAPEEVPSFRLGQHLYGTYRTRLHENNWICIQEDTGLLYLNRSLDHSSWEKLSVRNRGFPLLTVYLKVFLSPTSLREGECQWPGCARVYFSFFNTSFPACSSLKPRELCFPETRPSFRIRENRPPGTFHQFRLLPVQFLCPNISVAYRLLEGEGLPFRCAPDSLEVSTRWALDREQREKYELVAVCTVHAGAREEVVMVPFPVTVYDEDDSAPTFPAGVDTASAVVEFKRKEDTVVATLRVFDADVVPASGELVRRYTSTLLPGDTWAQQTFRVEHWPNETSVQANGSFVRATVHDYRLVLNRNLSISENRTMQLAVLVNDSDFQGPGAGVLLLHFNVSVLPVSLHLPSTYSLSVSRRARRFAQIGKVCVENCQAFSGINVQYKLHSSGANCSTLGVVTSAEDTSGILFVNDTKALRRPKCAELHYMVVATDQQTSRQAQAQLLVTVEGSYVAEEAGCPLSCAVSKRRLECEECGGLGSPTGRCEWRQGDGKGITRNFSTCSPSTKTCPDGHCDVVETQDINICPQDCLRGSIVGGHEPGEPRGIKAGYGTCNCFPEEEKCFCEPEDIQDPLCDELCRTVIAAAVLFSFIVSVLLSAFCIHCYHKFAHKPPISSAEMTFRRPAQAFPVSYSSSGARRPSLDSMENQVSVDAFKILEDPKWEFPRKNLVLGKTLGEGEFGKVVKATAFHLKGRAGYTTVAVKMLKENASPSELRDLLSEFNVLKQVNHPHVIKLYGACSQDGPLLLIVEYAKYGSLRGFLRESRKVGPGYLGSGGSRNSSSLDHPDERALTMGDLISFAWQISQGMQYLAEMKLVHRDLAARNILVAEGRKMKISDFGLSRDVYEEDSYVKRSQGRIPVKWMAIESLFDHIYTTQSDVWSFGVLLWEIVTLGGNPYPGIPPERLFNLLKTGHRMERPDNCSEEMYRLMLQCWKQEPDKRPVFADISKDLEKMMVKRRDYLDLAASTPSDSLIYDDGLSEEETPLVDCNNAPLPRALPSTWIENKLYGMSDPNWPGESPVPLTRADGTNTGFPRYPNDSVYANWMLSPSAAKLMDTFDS
Sequence of Fibroblast growth factor receptor 3 (Homo sapiens) (P22607 23-806 limits assumed): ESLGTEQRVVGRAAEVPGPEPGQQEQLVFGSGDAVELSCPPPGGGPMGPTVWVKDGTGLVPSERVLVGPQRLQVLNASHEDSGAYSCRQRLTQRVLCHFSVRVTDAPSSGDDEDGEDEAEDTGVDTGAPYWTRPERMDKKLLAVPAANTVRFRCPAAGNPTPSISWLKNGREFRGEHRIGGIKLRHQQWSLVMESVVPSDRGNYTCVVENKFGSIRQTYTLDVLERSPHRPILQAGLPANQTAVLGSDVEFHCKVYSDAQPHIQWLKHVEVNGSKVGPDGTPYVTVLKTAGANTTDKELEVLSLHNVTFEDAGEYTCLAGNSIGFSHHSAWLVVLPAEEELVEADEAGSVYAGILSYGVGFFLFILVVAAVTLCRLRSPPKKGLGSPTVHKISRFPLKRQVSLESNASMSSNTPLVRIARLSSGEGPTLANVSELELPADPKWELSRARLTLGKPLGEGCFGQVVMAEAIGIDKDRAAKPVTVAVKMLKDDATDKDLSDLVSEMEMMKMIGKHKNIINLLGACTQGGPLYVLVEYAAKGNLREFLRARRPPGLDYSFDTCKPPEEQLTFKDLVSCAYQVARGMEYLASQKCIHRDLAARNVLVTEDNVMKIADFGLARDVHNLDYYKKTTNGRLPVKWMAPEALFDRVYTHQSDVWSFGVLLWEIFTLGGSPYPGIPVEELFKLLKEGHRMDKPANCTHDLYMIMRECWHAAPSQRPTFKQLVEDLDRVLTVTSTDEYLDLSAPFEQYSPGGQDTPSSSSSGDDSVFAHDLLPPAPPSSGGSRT
Sequence of Aurora kinase B (Q96GD4 whole entry): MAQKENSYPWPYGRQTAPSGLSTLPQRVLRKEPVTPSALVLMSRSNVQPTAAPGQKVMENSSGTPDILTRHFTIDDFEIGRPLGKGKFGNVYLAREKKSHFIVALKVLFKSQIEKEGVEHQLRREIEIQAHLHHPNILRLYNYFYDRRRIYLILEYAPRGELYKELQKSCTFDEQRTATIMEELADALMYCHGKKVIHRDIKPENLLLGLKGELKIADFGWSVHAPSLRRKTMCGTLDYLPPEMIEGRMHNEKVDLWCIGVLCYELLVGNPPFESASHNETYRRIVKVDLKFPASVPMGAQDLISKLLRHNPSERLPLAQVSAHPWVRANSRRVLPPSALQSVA

IC50 (Aurora kinase A): 32 nM
IC50 (Aurora kinase B): 29 nM
inhibition [5]: 100%
inhibition [6]: 98.4%
inhibition [7]: 81.6%
inhibition [8]: 78.7%
inhibition [9]: 56.8%
inhibition [10]: 35.7%
inhibition [11]: 35.7%
inhibition [12]: 21.4%
inhibition [13]: 17.3%
inhibition [14]: 12.4%
Structure (SMILES): CNC(=O)Nc1sc2c(C(C)C)cc(NS(=O)(=O)c3cccs3)cc2c1C(N)=O
CI (HCT-116 [1]): 1.042
CI (HCT-116 [2]): 0.755
CI (HT-29 [3]): 0.185
CI (HT-29 [4]): 0.198
